In patent publication US20040127403A1, “Methods for treating and preventing Gram-positive bacteremias” (priority 2002, published 2004):

Test system: E. faecium A6345 Line-R
Assay: MIC, NCCLS broth microdilution
Type: cell-based
Procedure: The efficacy of ramoplanin was tested against recently isolated VRE that are resistant to linezolid and quinupristin/dalfopristin. The culture media containing ramoplanin was supplemented with 0.02% bovine serum albumin (BSA) to prevent ramoplanin binding to the plastic. MIC values were determined in both cation-adjusted Mueller-Hinton broth (CAMHB) and trypticase soy broth (TSB) by the National Committee for Clinical Laboratory Standards (NCCLS) broth microdilution method. Macromolecular biosynthesis experiments were done by following the incorporation of carbon-14-labeled N-acetylglucosamine, acetic acid, amino acids, uridine, and thymidine into peptidoglycan, fatty acid, protein, RNA and DNA, respectively.

[1] = E. faecium A6345 Line-R. as printed, second row of Table 3
[2] = E. faecium A6345 Line-R., first row of Table 3

Row | SMILES | reference MIC for strains used for killing curve [1] [µg/mL] | reference MIC for strains used for killing curve [2] [µg/mL]
1 | CO[C@H]1/C=C/O[C@@]2(C)Oc3c(C)c(O)c4c(O)c(c(/C=N/N5CCN(C)CC5)c(O)c4c3C2=O)NC(=O)/C(C)=C\C=C\[C@H](C)[C@H](O)[C@@H](C)[C@@H](O)[C@@H](C)[C@H](OC(C)=O)[C@@H]1C [Rifampin] | 0.03 | 16
2 | O=C(N[C@H](CO)[C@H](O)c1ccc([N+](=O)[O-])cc1)C(Cl)Cl [Chloramphenicol] | 16 | 16
